In patent US10716305B2, “Anti-bacterial compositions” (priority 2015, dated 2020):
In brackets after ≈: the same amount, converted by molar mass. Read-outs that look alike come from different tables or passages of the source.

Experiments:
bovine corneas = assay: OECD Bovine Corneal Opacity and Permeability Test (BCOP); settings: 0.75 ml, 10-minute exposure
Protocol: This protocol is based on the methodology described in the current OECD Guideline for the Testing of Chemicals #437.
Following a 10-minute exposure for each group of dosed corneas, opacity measurements and sodium fluorescein permeability were determined.

[1] = system: MatTek EpiDerm tissue (Reconstructed Human Epidermis); assay: MatTek EpiDerm Skin Irritation Test (SIT); assay type: cell-based; settings: 60 minutes treatment
Protocol: This test was conducted to predict dermal irritation potential of test articles in the context of identification and classification of skin irritation hazard according to the European Union (EU) classification ([…] or no label), United Nations Globally Harmonized System of Classification and Labeling of Chemicals (GHS) classification system (Category 2 and non-irritants), and OECD Guideline for the Testing of Chemicals No. 439-In Vitro Skin Irritation: Reconstructed Human Epidermis Test Method. This study was designed based on MatTek protocol in vitro EpiDermTM Skin Irritation Test. MatTek EpiDermTM tissue samples were treated in triplicate with the test composition, Negative Control and Positive Control for 60 minutes. Following treatment and subsequent incubation time, the viability of the tissues was determined using Methyl thiazole tetrazolium (MTT) uptake and reduction. The absorbance of each sample was measured at 540 nm. The viability was then expressed as a percent of control values. If the mean tissue viability was ≤50%, the test material was classified as an irritant; if the mean tissue viability was […].

[2] = system: BALB/C 3T3 mouse fibroblast cell line; assay: 3T3 Neutral Red Uptake Phototoxicity Assay; assay type: cell-based; settings: for EC50: Mus musculus
Protocol: The cytotoxicity and phototoxicity of the test composition to 3T3 cells (in the presence or absence of UVA light) was assessed by Neutral Red Uptake. The 3T3 Neutral Red Uptake Phototoxicity Assay (3T3 NRU PT), based on the OECD Guideline for Testing of Chemicals: […] An Ultraviolet-Visible light (UV-VIS) spectral scan was performed on a solution containing 0.1% of the test composition in a solution of 1% DMSO/HBSS. […] For both the range-finding screen and the definitive test of the 3T3 assay, BALB/C 3T3 cells were seeded in the central 60 wells of duplicate 96-well microplates and maintained in culture for approximately 24 hours. The two 96-well plates were then preincubated with eight different concentrations of the test composition for approximately one hour. After preincubation, one plate was irradiated with a dose of 5 J/cm^2 Solar Simulated Light (SSL, containing wavelengths in the UVA and visible regions with >99% of UVB blocked out), while the duplicate plate was kept in the dark (No SSL). After UV irradiation, the treatment medium was replaced with culture medium and, after approximately 24 hours, cell viability was determined by neutral red uptake for three hours. A range finding screen was performed to determine the acceptable concentrations for the definitive test. MS Excel® was used to calculate the EC50 values and Photo-Irritant Factor (PIF) for the test article and the Chlorpromazine (CPZ) positive control in both the Screen and the Definitive test.

MRSA = assay: Comparative efficacy study, oral gavage, MRSA induction IP; assay type: in vivo, BALB/C mice; settings: oral treatment for 7 days, Composition A 100 mg/kg, antibiotics per RX dose converted to mice
Protocol: Efficacy Study in comparison to leading anti-MRSA antibiotics was conducted in BALB/C mice.
7a. Administration Route: Oral Gavage
Group 1 (6 mice males)—MRSA Induction IP no treatment
Group 2 (6 mice males)—MRSA Induction IP—oral treatment for 7 days
Group 3 (6 mice males)—No Induction—oral treatment for 7 days
For the antibiotics the dose was as per RX prescription converted to mice Body Weights.
1—Erythromycin 250 mg/pt b.i.d. equals 2.1 mg/20 g mouse/day 300 mg total/12 mice
2—Clindamycin 150 mg/pt b.i.d. equals 1.25 mg/20 g mouse/day 200 mg total/12 mice
3—Vancomycine 250 mg/pt b.i.d. equals 2.1 mg/20 g mouse/day 300 mg total/12 mice

For CCO [100% Ethanol, Ethanol], the “Corrected Mean Opacity Score” value (bovine corneas) was 22.66 and the “In Vitro Irritation Score (IVIS)” value (bovine corneas) was 32.34.
For CCCCCCCCCCCCOS(=O)(=O)[O-].[Na+] [5% Sodium Dodecyl Sulfate, Sodium Dodecyl Sulfate], the “Irritancy Classification” value [1] was “Irritant (mean tissue viability was ≤50%, the test material was classified as an irritant)” and the “Mean Tissue Viability” value ([1]; MTT, percent of control) was 3.1%.
In the case of CN(C)CCCN1c2ccccc2Sc2ccc(Cl)cc21 [CPZ, Chlorpromazine], the EC50 ([2]; BALB/c3T3, light or radiation study, 5 J/cm^2 Solar Simulated Light, range tested 0.22-3.16 μg/ml, read-out: EC50 + SSL) is reported as 0.4 µg/mL, the EC50 ([2]; BALB/c3T3, dark, range tested 6.81-100 μg/ml, read-out: EC50 No SSL) is reported as 18.8 µg/mL (≈ 59 µM) and the “PIF (Photo-Irritant Factor)” value ([2]; definitive test) is reported as 47.0.
For CC[C@H]1OC(=O)[C@H](C)[C@@H](O[C@H]2C[C@@](C)(OC)[C@@H](O)[C@H](C)O2)[C@H](C)[C@@H](O[C@@H]2O[C@H](C)C[C@H](N(C)C)[C@H]2O)[C@](C)(O)C[C@@H](C)C(=O)[C@H](C)[C@@H](O)[C@]1(C)O [Erythromycin], the blood cell culture (MRSA) was “two colonies”.
CN[C@H](CC(C)C)C(=O)N[C@H]1C(=O)N[C@@H](CC(N)=O)C(=O)N[C@H]2C(=O)N[C@H]3C(=O)N[C@H](C(=O)N[C@H](C(=O)O)c4cc(O)cc(O)c4-c4cc3ccc4O)[C@H](O)c3ccc(c(Cl)c3)Oc3cc2cc(c3O[C@@H]2O[C@H](CO)[C@@H](O)[C@H](O)[C@H]2O[C@H]2C[C@](C)(N)[C@H](O)[C@H](C)O2)Oc2ccc(cc2Cl)[C@H]1O [vancomycin, Vancomycin] was tested, and the blood cell culture (MRSA) was “one colony”.
